From patent US6303641A, “Cyanoamidines as cell proliferation inhibitors” (Leo Pharmaceuticals Products Ltd., priority 1997, dated 2001)

Assays:
[1] = test system: human small cell lung carcinoma (NYH); experiment: Inhibition of tumour cell proliferation in vitro ([3H]thymidine incorporation), NYH; type: cell-based; details: 24 hours, read-out: The median inhibition concentration (IC50, nM) of NYH
Protocol: (§1) The inhibition of tumour cell proliferation was studied using different types of human cancer cell lines. The cell lines under investigation were small cell lung carcinoma (NYH), and breast cancer (MCF-7) using the following general procedure.
(§2) The cells were cultured in vitro for 24 hours in the presence of the compound under investigation. DNA synthesis was measured by incorporation of [3H]thymidine, and the median inhibitory concentrations (IC50) of the compounds were calculated.

[2] = test system: human breast cancer (MCF-7); experiment: Inhibition of tumour cell proliferation in vitro ([3H]thymidine incorporation), MCF-7; type: cell-based; details: MCF7, 24 hours, read-out: The median inhibition concentration (IC50, nM) of MCF-7
Protocol: as §1, §2

Yoshida sarcoma cells = experiment: Survival of Yoshida tumour-bearing rats (Increased Life Span); type: in vivo, LEW/Mol inbred female rats; details: once daily from day 3
Protocol: The prolongation of survival time of tumour-bearing rats was studied in LEW/Mol inbred female rats inoculated with Yoshida sarcoma cells in a number of 2×10^7 cells. Tumour-bearing rats (6 animals per group) were dosed orally once daily from day 3 after the transfer of tumour cells and until death or until the body-weights had increased by 10% as a consequence of tumour proliferation. The mean survival day of treated versus non-treated rats is used to calculate ILS (Increased Life Span). ILS=((mean treated/mean control)-1)*100%.

Structure (SMILES)	IC50 [1] [nM]	IC50 [2] [nM]	Increased life span (ILS) (Yoshida sarcoma cells; 50 mg/kg p.o.) [%]	Increased life span (ILS) (Yoshida sarcoma cells; 10 mg/kg p.o.) [%]	Increased life span (ILS) (Yoshida sarcoma cells; 20 mg/kg p.o.) [%]	Increased life span (ILS) (Yoshida sarcoma cells; 30 mg/kg p.o.) [%]
COc1ccccc1OCCCCCCNC(=NC#N)c1cccnc1 [Example no. 2, N^2 -Cyano-N^1-(6-(2-methoxyphenoxy)hexyl)-3-pyridinecarboxamidine]	340	540				
N#CN=C(NCCCCCCOc1ccc2c(c1)OCO2)c1cccnc1 [Example no. 3, N^2 -Cyano-N^1-(6-(3,4-methylenedioxyphenoxy)hexyl)-3-pyridinecarboxamidine]	350	740				
N#CN=C(NCCCCCCOc1ccc(Cl)cc1)c1cccnc1 [Example no. 1, N^2 -Cyano-N^1-(6(4-chlorophenoxy)hexyl)-3-pyridinecarboxamidine]	39	350		60	90	102

The next lines start with results.

IC50 [1] [nM]	IC50 [2] [nM]	Structure (SMILES)	Increased life span (ILS) (Yoshida sarcoma cells; 50 mg/kg p.o.) [%]	Increased life span (ILS) (Yoshida sarcoma cells; 10 mg/kg p.o.) [%]	Increased life span (ILS) (Yoshida sarcoma cells; 20 mg/kg p.o.) [%]	Increased life span (ILS) (Yoshida sarcoma cells; 30 mg/kg p.o.) [%]
45	250	N#CNC(=Nc1ccncc1)NCCCCCOc1ccccc1 [Prior art C, N-Cyano-N'-(5-phenoxypentyl)-N"-4-pyridylguanidine, reference compound]	35			
380	920	N#CNC(=Nc1ccncc1)NCCCCOc1ccccc1 [Prior art B, N-Cyano-N'-(4-phenoxybutyl)-N"-4-pyridylguanidine, reference compound]				
	10000	CCCCCCCCNC(=NC#N)c1cccnc1 [Prior art A, N^2 -Cyano-N^1-octyl-3-pyridinecarboxamidine, reference compound]				
